≈ marks a conversion by molar mass, not a printed value. Calls of active or inactive are those of the source. No cut-off for these calls is given here.
Legend:
Klebsiella pneumoniae [1] = assay: Substrate activity at Klebsiella pneumoniae beta-lactamase IMP-28 assessed as compound hydrolysis by measuring Km by Michaelis-Menten analysis
Enterobacter cloacae [2] = assay: Inhibition of Metallo-beta-lactamase IMP-1 in Enterobacter cloacae clinical isolate assessed as fold reduction in meropenem MIC at 128 ug/ml; settings: dose 128.0 µg/ml
Klebsiella pneumoniae [3] = assay: Substrate activity at Klebsiella pneumoniae beta-lactamase IMP-28 assessed as compound hydrolysis by measuring Kcat/Km by Michaelis-Menten analysis
Klebsiella pneumoniae [4] = assay: Inhibition of Metallo-beta-lactamase IMP-28 in Klebsiella pneumoniae clinical isolate assessed as MIC for meropenem antibacterial activity at 128 ug/ml (reference value: 4 ug/ml); settings: dose 128.0 µg/ml
Escherichia coli [5] = assay: Substrate activity at Escherichia coli beta-lactamase NDM-1 assessed as compound hydrolysis by measuring kcat/km by Michaelis-Menten analysis
[6] = Stability of the compound in Muller hinton broth assessed compound remaining measured after 15 hrs by HPLC analysis; format: physicochemical; settings: Mueller Hinton broth, read-out: Stability
Klebsiella pneumoniae [7] = assay: Inhibition of Metallo-beta-lactamase IMP-28 in Klebsiella pneumoniae clinical isolate assessed as MIC for meropenem antibacterial activity at 64 ug/ml (reference value: 4 ug/ml); settings: dose 64.0 µg/ml
Enterobacter cloacae [8] = assay: Inhibition of Metallo-beta-lactamase IMP-1 in Enterobacter cloacae clinical isolate assessed as fold reduction in meropenem MIC at 64 ug/ml; settings: dose 64.0 µg/ml
Escherichia coli [9] = assay: Inhibition of Metallo-beta-lactamase VIM-2 in Escherichia coli clinical isolate assessed as fold reduction in meropenem MIC at 128 ug/ml; settings: dose 128.0 µg/ml
[10] = Metabolic stability of the compound assessed as Klebsiella pneumoniae beta-lactamase IMP-28-mediated metabolism by (2R)-2-((R)-carboxy(2-phenylacetamido)methyl)-5-((carboxy(phenyl)methylthio)methyl)-5,6-dihydro-2H-1,3-thiazine-4-carboxylic acid by LC-MS analysis; format: ADME
Klebsiella pneumoniae [11] = assay: Substrate activity at Klebsiella pneumoniae beta-lactamase IMP-28 assessed as compound hydrolysis by measuring Kcat by Michaelis-Menten analysis
Escherichia coli [12] = assay: Antibacterial activity against beta-lactamase NDM1 producing Escherichia coli clinical isolate measured upto 128 ug/ml; format: functional, organism-based
Escherichia coli [13] = assay: Inhibition of Metallo-beta-lactamase VIM-2 in Escherichia coli clinical isolate assessed as fold reduction in meropenem MIC at 32 ug/ml; settings: dose 32.0 µg/ml
Escherichia coli [14] = assay: Inhibition of Metallo-beta-lactamase VIM-2 in Escherichia coli clinical isolate assessed as MIC for meropenem antibacterial activity at 64 ug/ml (reference value: 8 ug/ml); settings: dose 64.0 µg/ml
Enterobacter cloacae [15] = assay: Inhibition of Metallo-beta-lactamase IMP-1 in Enterobacter cloacae clinical isolate assessed as MIC for meropenem antibacterial activity at 32 ug/ml (reference value: 32 ug/ml); settings: dose 32.0 µg/ml
Enterobacter cloacae [16] = assay: Antibacterial activity against beta-lactamase IMP1 producing Enterobacter cloacae clinical isolate measured upto 128 ug/ml; format: functional, organism-based
Escherichia coli [17] = assay: Inhibition of Metallo-beta-lactamase VIM-2 in Escherichia coli clinical isolate assessed as MIC for meropenem antibacterial activity at 32 ug/ml (reference value: 8 ug/ml); settings: dose 32.0 µg/ml
[18] = Inhibition of Escherichia coli beta-lactamase NDM-1 using nitrocefin chromogenic substrate measured after 15 to 60 min at 25 degC by microplate reader
Escherichia coli [19] = assay: Inhibition of Metallo-beta-lactamase NDM-1 in Escherichia coli clinical isolate assessed as fold reduction in meropenem MIC at 128 ug/ml; settings: dose 128.0 µg/ml
[20] = Inhibition of Enterobacter cloacae IMP-1 using nitrocefin chromogenic substrate measured after 15 to 60 min at 25 degC by microplate reader
Escherichia coli [21] = assay: Substrate activity at Escherichia coli beta-lactamase VIM-2 assessed as compound hydrolysis by measuring Km by Michaelis-Menten analysis
Escherichia coli [22] = assay: Antibacterial activity against beta-lactamase VIM2 producing Escherichia coli clinical isolate measured upto 128 ug/ml; format: functional, organism-based
[23] = Inhibition of Escherichia coli beta-lactamase VIM-2 using nitrocefin chromogenic substrate measured after 15 to 60 min at 25 degC by microplate reader
Klebsiella pneumoniae [24] = assay: Inhibition of Metallo-beta-lactamase IMP-28 in Klebsiella pneumoniae clinical isolate assessed as fold reduction in meropenem MIC at 32 ug/ml; settings: dose 32.0 µg/ml
Klebsiella pneumoniae [25] = assay: Inhibition of Metallo-beta-lactamase IMP-28 in Klebsiella pneumoniae clinical isolate assessed as fold reduction in meropenem MIC at 128 ug/ml; settings: dose 128.0 µg/ml
[26] = Stability of the compound assessed as Klebsiella pneumoniae beta-lactamase IMP-28-mediated degradation by measuring appearance of vinyl protons release measured after 120 mins by NMR spectra; format: ADME; settings: 2 h
Escherichia coli [27] = assay: Inhibition of Metallo-beta-lactamase NDM-1 in Escherichia coli clinical isolate assessed as MIC for meropenem antibacterial activity at 32 ug/ml (reference value: 32 ug/ml); settings: dose 32.0 µg/ml
Enterobacter cloacae [28] = assay: Inhibition of Enterobacter cloacae Metallo-beta-lactamase IMP-1
Escherichia coli [29] = assay: Substrate activity at Escherichia coli beta-lactamase NDM-1 assessed as compound hydrolysis by measuring Kcat by Michaelis-Menten analysis
Escherichia coli [30] = assay: Inhibition of Metallo-beta-lactamase NDM-1 in Escherichia coli clinical isolate assessed as fold reduction in meropenem MIC at 32 ug/ml; settings: dose 32.0 µg/ml
Enterobacter cloacae [31] = assay: Inhibition of Metallo-beta-lactamase IMP-1 in Enterobacter cloacae clinical isolate assessed as MIC for meropenem antibacterial activity at 64 ug/ml (reference value: 32 ug/ml); settings: dose 64.0 µg/ml
Escherichia coli [32] = assay: Substrate activity at Escherichia coli beta-lactamase NDM-1 assessed as compound hydrolysis by measuring Km by Michaelis-Menten analysis
Escherichia coli [33] = assay: Inhibition of Metallo-beta-lactamase NDM-1 in Escherichia coli clinical isolate assessed as fold reduction in meropenem MIC at 64 ug/ml; settings: dose 64.0 µg/ml
Klebsiella pneumoniae [34] = assay: Inhibition of Klebsiella pneumoniae beta Metallo-beta-lactamase IMP-28
Escherichia coli [35] = assay: Substrate activity at Escherichia coli beta-lactamase VIM-2 assessed as compound hydrolysis by measuring Kcat by Michaelis-Menten analysis
Escherichia coli [36] = assay: Inhibition of Metallo-beta-lactamase VIM-2 in Escherichia coli clinical isolate assessed as fold reduction in meropenem MIC at 64 ug/ml; settings: dose 64.0 µg/ml
Klebsiella pneumoniae [37] = assay: Inhibition of Metallo-beta-lactamase IMP-28 in Klebsiella pneumoniae clinical isolate assessed as fold reduction in meropenem MIC at 64 ug/ml; settings: dose 64.0 µg/ml
[38] = Inhibition of Klebsiella pneumoniae beta-lactamase IMP-28 using nitrocefin chromogenic substrate measured after 15 to 60 min at 25 degC by microplate reader
Escherichia coli [39] = assay: Inhibition of Metallo-beta-lactamase VIM-2 in Escherichia coli clinical isolate assessed as MIC for meropenem antibacterial activity at 128 ug/ml (reference value: 8 ug/ml); settings: dose 128.0 µg/ml
Escherichia coli [40] = assay: Inhibition of Metallo-beta-lactamase NDM-1 in Escherichia coli clinical isolate assessed as MIC for meropenem antibacterial activity at 128 ug/ml (reference value: 32 ug/ml); settings: dose 128.0 µg/ml
Klebsiella pneumoniae [41] = assay: Antibacterial activity against beta-lactamase IMP-28 producing Klebsiella pneumoniae clinical isolate measured upto 128 ug/ml; format: functional, organism-based
Escherichia coli [42] = assay: Inhibition of Metallo-beta-lactamase NDM-1 in Escherichia coli clinical isolate assessed as MIC for meropenem antibacterial activity at 64 ug/ml (reference value: 32 ug/ml); settings: dose 64.0 µg/ml
Escherichia coli [43] = assay: Substrate activity at Escherichia coli beta-lactamase VIM-2 assessed as compound hydrolysis by measuring Kcat/Km by Michaelis-Menten analysis
Enterobacter cloacae [44] = assay: Inhibition of Metallo-beta-lactamase IMP-1 in Enterobacter cloacae clinical isolate assessed as MIC for meropenem antibacterial activity at 128 ug/ml (reference value: 32 ug/ml); settings: dose 128.0 µg/ml
Enterobacter cloacae [45] = assay: Inhibition of Metallo-beta-lactamase IMP-1 in Enterobacter cloacae clinical isolate assessed as fold reduction in meropenem MIC at 32 ug/ml; settings: dose 32.0 µg/ml
Klebsiella pneumoniae [46] = assay: Inhibition of Metallo-beta-lactamase IMP-28 in Klebsiella pneumoniae clinical isolate assessed as MIC for meropenem antibacterial activity at 32 ug/ml (reference value: 4 ug/ml); settings: dose 32.0 µg/ml
[47] = Metabolic stability of the compound assessed as Klebsiella pneumoniae beta-lactamase IMP-28-mediated metabolism by (2R)-2-((R)-carboxy(2-phenylacetamido)methyl)-5-(((R)-carboxy(phenyl)methylthio)methyl)-5,6-dihydro-2H-1,3-thiazine-4-carboxylic acid by LC-MS analysis; format: ADME

SMILES: O=C(Cc1ccccc1)N[C@@H]1C(=O)N2C(C(=O)O)=C(CSC(C(=O)O)c3ccccc3)CS[C@H]12 (some centres not stated)
- Km (Klebsiella pneumoniae [1]): 129 µM
- fold change (FC) (Enterobacter cloacae [2]): 64
- kcat/Km (Klebsiella pneumoniae [3]): 3000 M⁻¹ s⁻¹
- MIC (Klebsiella pneumoniae [4]): < 0.063 µg/mL
- kcat/Km (Escherichia coli [5]): 936000 M⁻¹ s⁻¹
- remaining at 15 h [6]: > 95%
- MIC (Klebsiella pneumoniae [7]): < 0.063 µg/mL
- fold change (FC) (Enterobacter cloacae [8]): 64
- fold change (FC) (Escherichia coli [9]): 8
- Drug metabolism [10]: Metabolite_Detected
- kcat (Klebsiella pneumoniae [11]): 0.386 s⁻¹
- Activity (Escherichia coli [12]): inactive
- fold change (FC) (Escherichia coli [13]): 2
- MIC (Escherichia coli [14]): 2 µg/mL (≈ 4.01 µM)
- MIC (Enterobacter cloacae [15]): 1 µg/mL (≈ 2.01 µM)
- Activity (Enterobacter cloacae [16]): inactive
- MIC (Escherichia coli [17]): 4 µg/mL (≈ 8.02 µM)
- IC50 [18]: > 100 µM
- fold change (FC) (Escherichia coli [19]): 4
- IC50 [20]: 0.47 µM
- Km (Escherichia coli [21]): 8.28 µM
- Activity (Escherichia coli [22]): inactive
- IC50 [23]: 10 µM
- fold change (FC) (Klebsiella pneumoniae [24]): > 64
- fold change (FC) (Klebsiella pneumoniae [25]): > 64
- Stability [26]: Stable
- MIC (Escherichia coli [27]): 16 µg/mL (≈ 32.1 µM)
- inhibition (Enterobacter cloacae [28]): Active
- kcat (Escherichia coli [29]): 13.1 s⁻¹
- fold change (FC) (Escherichia coli [30]): 2
- MIC (Enterobacter cloacae [31]): 0.5 µg/mL (≈ 1 µM)
- Km (Escherichia coli [32]): 14 µM
- fold change (FC) (Escherichia coli [33]): 2
- inhibition (Klebsiella pneumoniae [34]): Active
- kcat (Escherichia coli [35]): 4.06 s⁻¹
- fold change (FC) (Escherichia coli [36]): 4
- fold change (FC) (Klebsiella pneumoniae [37]): > 64
- IC50 [38]: 0.46 µM
- MIC (Escherichia coli [39]): 1 µg/mL (≈ 2.01 µM)
- MIC (Escherichia coli [40]): 8 µg/mL (≈ 16 µM)
- Activity (Klebsiella pneumoniae [41]): inactive
- MIC (Escherichia coli [42]): 16 µg/mL (≈ 32.1 µM)
- kcat/Km (Escherichia coli [43]): 490000 M⁻¹ s⁻¹
- MIC (Enterobacter cloacae [44]): 0.5 µg/mL (≈ 1 µM)
- fold change (FC) (Enterobacter cloacae [45]): 32
- MIC (Klebsiella pneumoniae [46]): < 0.063 µg/mL

SMILES: O=C(Cc1ccccc1)N[C@@H]1C(=O)N2C(C(=O)O)=C(CS[C@H](Cc3ccccc3)C(=O)O)CS[C@H]12
- Km (Klebsiella pneumoniae [1]): 249 µM
- fold change (FC) (Enterobacter cloacae [2]): 64
- kcat/Km (Klebsiella pneumoniae [3]): 11000 M⁻¹ s⁻¹
- MIC (Klebsiella pneumoniae [4]): < 0.063 µg/mL
- kcat/Km (Escherichia coli [5]): 821000 M⁻¹ s⁻¹
- remaining at 15 h [6]: > 95%
- MIC (Klebsiella pneumoniae [7]): < 0.063 µg/mL
- fold change (FC) (Enterobacter cloacae [8]): 32
- fold change (FC) (Escherichia coli [9]): 4
- kcat (Klebsiella pneumoniae [11]): 2.83 s⁻¹
- Activity (Escherichia coli [12]): inactive
- fold change (FC) (Escherichia coli [13]): 2
- MIC (Escherichia coli [14]): 4 µg/mL (≈ 7.8 µM)
- MIC (Enterobacter cloacae [15]): 1 µg/mL (≈ 1.95 µM)
- Activity (Enterobacter cloacae [16]): inactive
- MIC (Escherichia coli [17]): 4 µg/mL (≈ 7.8 µM)
- IC50 [18]: 94 µM
- fold change (FC) (Escherichia coli [19]): 4
- IC50 [20]: 4.7 µM
- Km (Escherichia coli [21]): 4.3 µM
- Activity (Escherichia coli [22]): inactive
- IC50 [23]: 16 µM
- fold change (FC) (Klebsiella pneumoniae [24]): > 64
- fold change (FC) (Klebsiella pneumoniae [25]): > 64
- Stability [26]: Stable
- MIC (Escherichia coli [27]): 16 µg/mL (≈ 31.2 µM)
- inhibition (Enterobacter cloacae [28]): Active
- kcat (Escherichia coli [29]): 17.4 s⁻¹
- Drug metabolism [47]: Metabolite_Detected
- fold change (FC) (Escherichia coli [30]): 2
- MIC (Enterobacter cloacae [31]): 1 µg/mL (≈ 1.95 µM)
- Km (Escherichia coli [32]): 21.2 µM
- fold change (FC) (Escherichia coli [33]): 4
- inhibition (Klebsiella pneumoniae [34]): Active
- kcat (Escherichia coli [35]): 2.35 s⁻¹
- fold change (FC) (Escherichia coli [36]): 2
- fold change (FC) (Klebsiella pneumoniae [37]): > 64
- IC50 [38]: 1.1 µM
- MIC (Escherichia coli [39]): 2 µg/mL (≈ 3.9 µM)
- MIC (Escherichia coli [40]): 8 µg/mL (≈ 15.6 µM)
- Activity (Klebsiella pneumoniae [41]): inactive
- MIC (Escherichia coli [42]): 8 µg/mL (≈ 15.6 µM)
- kcat/Km (Escherichia coli [43]): 546000 M⁻¹ s⁻¹
- MIC (Enterobacter cloacae [44]): 0.5 µg/mL (≈ 0.975 µM)
- fold change (FC) (Enterobacter cloacae [45]): 32
- MIC (Klebsiella pneumoniae [46]): < 0.063 µg/mL
